In patent US20230066011A1, “PYRROLOPYRIMIDINE DERIVATIVE, AND PHARMACEUTICAL COMPOSITION FOR PREVENTING OR TREATING PROTEIN KINASE-RELATED DISEASE COMPRISING SAME AS ACTIVE INGREDIENT” (VORONOI CO., LTD., priority 2019, published 2023):
pIC50: −log10 of the molar value.

Key:
Format in all cases: biochemical
LRRK2 (G2019S) = LRRK2 (G2019S) (Homo sapiens, UniProt Q5S007, G2019S); assay: LRRK2 G2019S enzyme inhibition, ADP-Glo kinase assay; set-up: purchased SignalChem L10-12GG; details: ATP 25 μM
Method in brief: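 IC50 derived from luminescent ADP-Glo readout against untreated solvent control, twelve final compound concentrations from 50 μM downward. Reaction: recombinant human LRRK2 G2019S enzyme, 25 μM ATP, substrate, pH 7.4 Tris buffer with MgCl2/BSA/DTT, 25° C. for 2 hours.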

LRRK2 = LRRK2 (Homo sapiens, UniProt Q5S007); assay: LRRK2 enzyme inhibition, ADP-Glo kinase assay; set-up: purchased Invitrogen PR8604B; details: ATP 10 μM
Protocol: To evaluate an inhibitory activity of the compound according to the present invention against LRRK2, LRRK2 (G2019S), DYRK1, CLK1, and TTK kinases, experiments were performed as follows.
Each of the Example compounds was reacted with a purified human LRRK2 (Invitrogen #PR8604B) enzyme to evaluate an ability to inhibit an enzyme using a method as described below. A composition of 40 mM Tris-HCl (pH 7.4), 20 mM MgCl2, 0.5 mg/mL BSA, and 50 μM DTT was used as a reaction buffer, and all reactions of test substances were performed in the reaction buffer. Each of the compounds was diluted […] from a 10 mM DMSO stock using a serial dilution method, and enzyme activities were measured at final compound concentrations of 50, 10, 2, 0.4, 0.08, 0.016, 0.0032, 0.00064, 0.000128, 0.0000256, 0.00000512, and 0.000001024 μM. In the test, purified ATP (10 μM) and an enzyme substrate (0.2 μg) were reacted with a human LRRK2 (25 ng) enzyme at 25° C. for 2 hours, and the enzyme activities were determined using an in vitro ADP-Glo™ kinase assay (Promega). An enzyme-activity reaction solution, an ADP-Glo reaction solution, and an enzyme-ability detection solution were reacted at a ratio of 2:2:1 to measure a degree of inhibition of the enzyme activity with luminescence. The degree of inhibition of the enzyme activity according to the treatment concentration of each of the compounds was calculated based on the fluorescence of the enzyme activity of the solvent control which was not treated with the compound. In this case, the concentration of each of the compounds inhibiting 50% of the enzyme activity was determined to be an IC50 (nM) value, and calculated using Prism (Version 5.01; GraphPad) software.

human GST-CLK1 = target: T1, human GST-CLK1 (Homo sapiens, UniProt P49759); assay: GST-CLK1 enzyme inhibition, ADP-Glo kinase assay; details: ATP 10 μM, GST-CLK1 129-end
T1 construct: purified human GST-CLK1 (129-end, SignalChem) enzyme; purchased SignalChem
Method in brief: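 ADP-Glo luminescence read-out, relative to untreated solvent control, gave IC50 (nM) from triplicate data sets. Reactions ran an hour at 25° C with 3 ng GST-CLK1 (residues 129-end), 10 μM ATP and specific substrate in Tris-HCl pH 7.4 buffer with MgCl2, BSA and DTT.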

human GST-DYRK1A = target: T2, human GST-DYRK1A (Homo sapiens, UniProt Q13627); assay: GST-DYRK1A enzyme inhibition, ADP-Glo kinase assay; details: ATP 10 μM, GST-DYRK1A full length, read-out: DYRK1 IC50
T2 construct: purified human GST-DYRK1A (full length, Thermo Scientifics) enzyme; purchased Thermo Scientifics
Method in brief: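 Full-length enzyme (10 ng) was incubated with 10 μM ATP and a specific substrate for 1 h at 25 °C in 40 mM Tris-HCl pH 7.4, 20 mM MgCl2, 0.5 mg/mL BSA, 50 μM DTT. Luminescence was read against a solvent control, and IC50 values were derived from 3 data sets.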

T1 sequence (P49759 129-484 limits assumed): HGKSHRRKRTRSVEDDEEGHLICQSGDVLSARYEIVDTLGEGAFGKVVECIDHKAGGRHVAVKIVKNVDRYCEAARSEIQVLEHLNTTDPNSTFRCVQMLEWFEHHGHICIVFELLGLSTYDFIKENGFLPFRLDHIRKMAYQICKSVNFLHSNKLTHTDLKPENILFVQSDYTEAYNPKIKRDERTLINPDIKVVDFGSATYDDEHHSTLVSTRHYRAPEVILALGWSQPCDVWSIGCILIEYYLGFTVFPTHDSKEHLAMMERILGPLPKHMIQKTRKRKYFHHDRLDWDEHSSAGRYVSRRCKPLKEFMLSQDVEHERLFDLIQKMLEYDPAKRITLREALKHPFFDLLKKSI
LRRK2, sequence (Q5S007 970-2527 limits assumed): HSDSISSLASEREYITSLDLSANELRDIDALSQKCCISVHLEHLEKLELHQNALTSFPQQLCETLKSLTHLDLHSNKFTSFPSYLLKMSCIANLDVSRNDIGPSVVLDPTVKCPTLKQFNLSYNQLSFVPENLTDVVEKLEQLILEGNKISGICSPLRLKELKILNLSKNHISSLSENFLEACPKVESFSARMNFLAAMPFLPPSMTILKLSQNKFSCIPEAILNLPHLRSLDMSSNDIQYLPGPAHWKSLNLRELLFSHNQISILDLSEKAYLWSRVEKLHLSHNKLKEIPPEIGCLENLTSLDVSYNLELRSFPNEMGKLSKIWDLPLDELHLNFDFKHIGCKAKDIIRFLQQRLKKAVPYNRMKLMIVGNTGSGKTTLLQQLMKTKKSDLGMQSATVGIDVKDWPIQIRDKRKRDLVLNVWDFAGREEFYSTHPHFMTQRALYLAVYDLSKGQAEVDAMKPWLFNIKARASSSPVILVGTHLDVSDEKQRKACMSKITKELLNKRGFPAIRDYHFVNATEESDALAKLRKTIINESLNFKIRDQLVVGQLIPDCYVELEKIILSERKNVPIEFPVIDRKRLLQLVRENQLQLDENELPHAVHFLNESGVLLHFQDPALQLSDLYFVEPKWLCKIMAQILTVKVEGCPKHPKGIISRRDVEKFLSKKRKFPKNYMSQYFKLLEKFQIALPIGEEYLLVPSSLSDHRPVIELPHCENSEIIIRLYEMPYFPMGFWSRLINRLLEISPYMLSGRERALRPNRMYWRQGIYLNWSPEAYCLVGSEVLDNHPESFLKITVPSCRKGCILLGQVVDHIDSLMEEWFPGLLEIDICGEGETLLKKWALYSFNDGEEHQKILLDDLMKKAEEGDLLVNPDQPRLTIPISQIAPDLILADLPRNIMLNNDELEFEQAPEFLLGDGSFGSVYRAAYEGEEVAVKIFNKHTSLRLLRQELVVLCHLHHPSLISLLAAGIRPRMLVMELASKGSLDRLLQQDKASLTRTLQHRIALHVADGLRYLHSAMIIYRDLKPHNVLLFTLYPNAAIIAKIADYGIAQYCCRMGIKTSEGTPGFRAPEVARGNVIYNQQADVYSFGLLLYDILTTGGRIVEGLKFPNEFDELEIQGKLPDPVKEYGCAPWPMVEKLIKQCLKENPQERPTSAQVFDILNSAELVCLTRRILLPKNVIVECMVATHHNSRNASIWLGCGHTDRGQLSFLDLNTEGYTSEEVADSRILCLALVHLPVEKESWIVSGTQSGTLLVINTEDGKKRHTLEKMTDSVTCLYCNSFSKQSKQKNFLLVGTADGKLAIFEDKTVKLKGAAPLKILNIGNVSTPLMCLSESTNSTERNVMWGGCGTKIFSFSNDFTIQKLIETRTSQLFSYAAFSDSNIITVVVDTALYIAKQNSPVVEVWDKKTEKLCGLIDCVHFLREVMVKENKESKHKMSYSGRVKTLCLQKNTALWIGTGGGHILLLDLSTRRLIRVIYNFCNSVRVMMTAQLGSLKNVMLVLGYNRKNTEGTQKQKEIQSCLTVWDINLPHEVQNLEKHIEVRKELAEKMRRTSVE
LRRK2 (G2019S), sequence (Q5S007 970-2527 G2019S limits assumed): as the sequence (Q5S007 970-2527 limits assumed) above, with G1050S counted along it

Structure (SMILES) | pIC50 (LRRK2 (G2019S)) | pIC50 (LRRK2) | pIC50 (human GST-CLK1) | pIC50 (human GST-DYRK1A)
COCCNc1nc(Nc2ccc(S(=O)(=O)N3CCOCC3)cc2OC)nc2[nH]ccc12 [Example 19, N^2-(2-methoxy-4-(morpholinosulfonyl)phenyl)-N^4-(2-methoxyethyl)-7H-pyrrolo[2,3-d]pyrimidine-2,4-diamine] | > 7.00 | > 7.00 | 6.00 to 6.52 | 6.00 to 6.52
COc1cc(S(C)(=O)=O)ccc1Nc1nc(NC2CCCC2)c2c(C(F)(F)F)c[nH]c2n1 [Example 188, N^4-cyclopentyl-N^2-(2-methoxy-4-(methylsulfonyl)phenyl)-5-(trifluoromethyl)-7H-pyrrolo[2,3-d]pyrimidine-2,4-diamine] | – | 6.00 to 6.52 | 6.00 to 6.52 | 6.00 to 6.52
O=C(c1ccc(Nc2nc(NC3CCCC3)c3c(C(F)(F)F)c[nH]c3n2)c2c1OCCO2)N1CCOCC1 [Example 189, (8-((4-(cyclopentylamino)-5-(trifluoromethyl)-7H-pyrrolo[2,3-d]pyrimidin-2-yl)amino)-2,3-dihydrobenzo[b][1,4]dioxin-5-yl)(morpholino)methanone] | – | > 7.00 | 6.52 to 7.00 | 6.52 to 7.00
O=C(c1ccc(Nc2nc(NC3CCCCC3)c3c(C(F)(F)F)c[nH]c3n2)c2c1OCCO2)N1CCOCC1 [Example 190, (8-((4-(cyclohexylamino)-5-(trifluoromethyl)-7H-pyrrolo[2,3-d]pyrimidin-2-yl)amino)-2,3-dihydrobenzo[b][1,4]dioxin-5-yl)(morpholino)methanone] | – | > 7.00 | 6.00 to 6.52 | 6.00 to 6.52
CNc1nc(Nc2ccc(C(=O)N3CCOCC3)c3c2OCO3)nc2[nH]cc(C(F)(F)F)c12 [Example 214, (7-((4-(methylamino)-5-(trifluoromethyl)-7H-pyrrolo[2,3-d]pyrimidin-2-yl)amino)benzo[d][1,3]dioxol-4-yl)(morpholino)methanone] | – | > 7.00 | > 7.00 | > 7.00
CNc1nc(Nc2ccc(C(=O)N3CCC(N4CCOCC4)CC3)c3c2OCO3)nc2[nH]cc(C(F)(F)F)c12 [Example 215, (7-((4-(methylamino)-5-(trifluoromethyl)-7H-pyrrolo[2,3-d]pyrimidin-2-yl)amino)benzo[d][1,3]dioxol-4-yl)(4-morpholinopiperidin-1-yl)methanone] | – | > 7.00 | 6.52 to 7.00 | 6.52 to 7.00
COc1cc(S(C)(=O)=O)ccc1Nc1nc(C2CC2)c2c(C#N)c[nH]c2n1 [Example 222, 4-cyclopropyl-2-((2-methoxy-4-(methylsulfonyl)phenyl)amino)-7H-pyrrolo[2,3-d]pyrimidine-5-carbonitrile] | – | > 7.00 | 6.00 to 6.52 | 6.00 to 6.52
COCCNc1nc(Nc2ccc(C(=O)N3CCC(N4CCOCC4)CC3)c3c2OCCO3)nc2[nH]cc(C#N)c12 [Example 256, 4-((2-methoxyethyl)amino)-2-((8-(4-morpholinopiperidine-1-carbonyl)-2,3-dihydrobenzo[b][1,4]dioxin-5-yl)amino)-7H-pyrrolo[2,3-d]pyrimidine-5-carbonitrile] | – | > 7.00 | > 7.00 | > 7.00
CCNc1nc(Nc2ccc(P3(=O)CCN(CC)CC3)cc2OC)nc2[nH]cc(C#N)c12 [Example 260, 2-((4-(1-ethyl-4-oxido-1,4-azaphosphinan-4-yl)-2-methoxyphenyl)amino)-4-(ethylamino)-7H-pyrrolo[2,3-d]pyrimidine-5-carbonitrile] | – | > 7.00 | 6.52 to 7.00 | 6.52 to 7.00
CCNc1nc(Nc2ccc(C(=O)N3CCOCC3)c3c2OCO3)nc2[nH]cc(C#N)c12 [Example 277, 4-(ethylamino)-2-((7-(morpholine-4-carbonyl)benzo[d][1,3]dioxol-4-yl)amino)-7H-pyrrolo[2,3-d]pyrimidine-5-carbonitrile] | – | > 7.00 | 6.00 to 6.52 | 6.00 to 6.52
CCNc1nc(Nc2ccc(P3(=O)CCN(C4COC4)CC3)cc2OC)nc2[nH]cc(C(F)(F)F)c12 [Example 399, 4-(4-((4-(ethylamino)-5-(trifluoromethyl)-7H-pyrrolo[2,3-d]pyrimidin-2-yl)amino)-3-methoxyphenyl)-1-(oxetan-3-yl)-1,4-azaphosphinane 4-oxide] | – | > 7.00 | > 7.00 | > 7.00
CCCNc1nc(Nc2ccc(P3(=O)CCN(C4CC4)CC3)cc2OC)nc2[nH]cc(C(F)(F)F)c12 [Example 401, 1-cyclopropyl-4-(3-methoxy-4-((4-(propylamino)-5-(trifluoromethyl)-7H-pyrrolo[2,3-d]pyrimidin-2-yl)amino)phenyl)-1,4-azaphosphinane 4-oxide] | – | > 7.00 | 6.52 to 7.00 | 6.00 to 6.52
COc1cc(P2(=O)CCN(C3CC3)CC2)ccc1Nc1nc(NC2CC2)c2c(C(F)(F)F)c[nH]c2n1 [Example 404, 1-cyclopropyl-4-(4-((4-(cyclo-propylamino) 5-(trifluoromethyl)-7H-pyrrolo[2,3-d]pyrimidin-2-yl)amino)3-methoxyphenyl)-1,4-azaphosphinane 4-oxide] | – | > 7.00 | > 7.00 | > 7.00
CCNc1nc(Nc2ccc(C(=O)N3C[C@@H]4C[C@H]3CO4)c3c2OCCO3)nc2[nH]cc(C(F)(F)F)c12 [Example 409] | – | > 7.00 | > 7.00 | > 7.00
O=C(c1ccc(Nc2nc(NCC3CCC3)c3c(C(F)(F)F)c[nH]c3n2)c2c1OCCO2)N1CCN(C2COC2)CC1 [Example 424, (8-((4-((cyclo-butylmethyl)amino)-5-(trifluoromethyl)-7H-pyrrolo[2,3-d]pyrimidin-2-yl)amino)-2,3-dihydrobenzo[b] [1,4]dioxin-5-yl) (4-(oxetan-3-yl)piperazin-1-yl)methanone] | – | > 7.00 | 6.00 to 6.52 | 6.00 to 6.52
CNc1nc(Nc2ccc(P3(=O)CCN(C4CCOCC4)CC3)cc2OC)nc2[nH]cc(C(F)(F)F)c12 [Example 436, 4-(3-methoxy-4-((4-(methylamino)-5-(trifluoromethyl)-7H-pyrrolo[2,3-d]pyrimidin-2-yl)amino)phenyl)-1-(tetrahydro-2H-pyran-4-yl)-1,4-azaphosphinane 4-oxide] | – | > 7.00 | > 7.00 | > 7.00
CC[C@H](C)Nc1nc(Nc2ccc(C(=O)N3CCC(N4CCOCC4)CC3)c3c2OCC3)nc2[nH]cc(C(F)(F)F)c12 [Example 452, (S)-(7-((4-(sec-butylamino)-5-(trifluoromethyl)-7H-pyrrolo[2,3-d]pyrimidin-2-yl)amino)-2,3-dihydrobenzo-furan-4-yl)(4-morpho-linopiperidin-1-yl)methanone] | – | > 7.00 | > 7.00 | 6.52 to 7.00
O=C(c1ccc(Nc2nc(NC3CCCCC3)c3c(C(F)(F)F)c[nH]c3n2)c2c1CCO2)N1CCC(N2CCOCC2)CC1 [Example 460, (7-((4-(cyclo-hexylamino)-5-(trifluoromethyl)-7H-pyrrolo[2,3-d]pyrimidin-2-yl)amino)-2,3-dihydrobenzo-furan-4-yl)(4-morpho-linopiperidin-1-yl)methanone] | – | > 7.00 | 6.00 to 6.52 | 6.00 to 6.52
C=CCNc1nc(Nc2ccc(S(=O)(=O)N3CCOCC3)cc2OC)nc2[nH]cc(C(F)(F)F)c12 [Example 474, N^4-allyl-N^2-(2-methoxy-4-(morpholino-sulfonyl)phenyl)-5-(trifluoromethyl)-7H-pyrrolo[2,3-d]pyrimidine-2,4-diamine] | – | 6.00 to 6.52 | 6.00 to 6.52 | 6.00 to 6.52
